The text below walks through data of patent publication US8895502B2, “β2-glycoprotein I peptide inhibitors” (Kansas State University Research Foundation, priority 2010, dated 2014).

“Also recorded” adds a separate entry of the source. Ends that are not written are not given here.

The subject of one test is VEGF. The experiment in a line: Spontaneous breast cancer model, VEGF RNA expression. Format: in vivo, mouse. The conditions noted are these: mammary tumors, compared to saline treated animals. How it is done: mRNA was isolated from the tumor samples that were homogenized in Trizol. The concentration of mRNA was evaluated by nanodrop and the purity by bioanalyzer. cDNA was then synthesized using random primers with the Quanta cDNA synthesis kit. RT-PCR was then performed on a 1:100 dilution of cDNA for 18s rRNA. After 3 min denaturing at 95° C., the real-time PCR reaction consisted of 50 cycles (of 10 sec at 95° C., 20 sec at 58° C., and 10 sec at 72° C.), followed by a melt curve increasing at intervals of 0.5° C. from 60° C. to 95° C. RT-PCR was also performed on cDNA samples for CD31 and VEGF which are endothelial markers of angiogenesis. After subtracting 18s Ct values, peptide treated dCt values were normalized to saline treated samples and fold change calculated as ddCt. Primers were obtained from Integrated DNA Technology (Coraville, Iowa) and sequences are in the table below.

A further test deals with B16-F10 mouse melanoma. Kind of test: B16-F10 melanoma model, tumor growth and vascularization. It counts as in vivo. How it is done: The mouse melanoma cell line, B16-F10 (ATCC CRL-6475), was cultured in DMEM supplemented with 10% fetal bovine serum at 8% CO2 until confluent. C57Bl/6 mice were injected subcutaneously with 2×10^6 cells mixed 1:1 in matrigel (BD Biosciences) and tumor growth was evaluated daily for up to 10 days using calipers. Some mice received 40 μM peptide daily for the first 4 days and then every other day until termination of the study. Control mice received N. saline. At the end of the study, the tumors were dissected and tumor volume determined by saline displacement. Photomicrographs (10×) of representative B16-F10 tumors extracted from C57Bl/6 wildtype mice were taken with a Nikon CoolSnap CF camera and an Olympus SZ61 microscope.
The study was repeated using additional C57Bl/6 mice, which were injected subcutaneously with 2×10^6 cells mixed with matrigel (above) 6-10 days before tumor excision. Peptide treated mice received 40 μM peptide 296Cys-Ser on days 1, 2, 3, 4, 6, and 8 after injection (n=2-5 animals/group) or days 3, 5, 7, 9 or only on days 4, 6, and 8. At the end of the study, the tumors were excised, measured, and volume was determined by aqueous displacement. Tumors were cut in half longitudinally with one half homogenized in Trizol for RNA and the other placed in OCT for histological analysis. Both halves were snap frozen and stored at −80° C. until used.

Another test relates to C57Bl/6 mice. The experiment in a line: Hemorrhage-induced intestinal damage and inflammation. The conditions noted are these: 40 uM peptide after blood loss, 2 hours post-hemorrhage. It counts as in vivo, mouse. How it is done:
After a 1-week acclimatization period, mice were anesthetized using […]. Mice undergoing hemorrhage were subjected to retro-orbital removal of 30% of the calculated blood volume (approximately 0.5 mL) over a 90-second period (Fleming, S. D. et al., J. Surg. Res. 150:196-203 (2008); Hylton, D. J. et al., Shock 34:467-474 (2010); Hylton, D. J. et al., Shock 35: 134-140 (2011)). Volume of blood to be removed was based on animal weight and ranged from […] (body weight in grams×0.025). The determined blood volume was measured in water and marked on both the collection tubes and the capillary tubing used for retro-orbital punctures. This ensured that the correct amount would be withdrawn. A single retro-orbital puncture was sufficient for blood collection. The 2 hour mortality rate was less than 1%. Sham mice were subjected to similar procedures with no blood removal. Mice were randomly assigned to receive 40 uM peptide (80 ng/mouse) in a volume of 80-150 μL, or an equal volume of normal saline. To prevent spontaneous complement activation, all studies were performed in the absence of heparin. At 2 hours post-hemorrhage, mice were euthanized and tissues collected for analysis. Intestinal tissues were formalin fixed for analysis of injury and frozen sections were obtained for immunohistochemistry. […]

Take “H-IHFYSKNKEKKSSYTVEAHSRDGTI-OH [peptide 296Cys-Ser]”: the “RNA expression of VEGF” value in the test with VEGF is reported as “significantly decreased”. Further, the “tumor vascularization (appearance)” value in the test on B16-F10 mouse melanoma (2 mice injected with melanoma cells and peptide) is “neither tumor appear vascularized”. In addition, the “tumor volume, normal saline displaced” value in the test with B16-F10 mouse melanoma (2 mice injected with melanoma cells and peptide, day 8) lay within 0 to 0.1 mL. Also, the “animals in which the tumor was either not present or had significantly diminished from the day of injection” value with B16-F10 mouse melanoma (early treatment (days 1-4, 6, 8)) was 3 of 7. Further, the “angiogenesis in the B16F10 melanoma model” value with B16-F10 mouse melanoma (mouse, in vivo) was “attenuates angiogenesis”. Besides, the “tumor growth and volume” value with B16-F10 mouse melanoma (repeat study, compared to untreated mice) is on record as “significantly decreased”. For the same substance, the tumor growth entry was “attenuated tumor growth; also recorded: prevented growth” in the test with B16-F10 mouse melanoma (treatment on days 1-4, 6, and 8); “attenuated tumor growth” with B16-F10 mouse melanoma (treatment on days 3, 5, 7, and 9). In the test with C57Bl/6 mice, the “hemorrhage-induced inflammation (PGE2 and IL-6 production)” value is “significantly lower; also recorded: inhibit”. In addition, the hemorrhage-induced intestinal damage entry in the test with C57Bl/6 mice is recorded as “significantly lower; also recorded: inhibit”.
